In paper PMC9329436, “Optimization of the 4-anilinoquin(az)oline scaffold as epidermal growth factor receptor (EGFR) inhibitors for chordoma utilizing a toxicology profiling assay platform” (Scientific Reports, 2022):
Like-named read-outs stand apart in the source and are kept apart here.

Tests used:
Type in all cases: biochemical
[1] = target: T1, 320 wild-type protein kinases (Homo sapiens, UniProt O94806); conditions: PKC-nu, singlicate
T1 sequence (O94806 1-890): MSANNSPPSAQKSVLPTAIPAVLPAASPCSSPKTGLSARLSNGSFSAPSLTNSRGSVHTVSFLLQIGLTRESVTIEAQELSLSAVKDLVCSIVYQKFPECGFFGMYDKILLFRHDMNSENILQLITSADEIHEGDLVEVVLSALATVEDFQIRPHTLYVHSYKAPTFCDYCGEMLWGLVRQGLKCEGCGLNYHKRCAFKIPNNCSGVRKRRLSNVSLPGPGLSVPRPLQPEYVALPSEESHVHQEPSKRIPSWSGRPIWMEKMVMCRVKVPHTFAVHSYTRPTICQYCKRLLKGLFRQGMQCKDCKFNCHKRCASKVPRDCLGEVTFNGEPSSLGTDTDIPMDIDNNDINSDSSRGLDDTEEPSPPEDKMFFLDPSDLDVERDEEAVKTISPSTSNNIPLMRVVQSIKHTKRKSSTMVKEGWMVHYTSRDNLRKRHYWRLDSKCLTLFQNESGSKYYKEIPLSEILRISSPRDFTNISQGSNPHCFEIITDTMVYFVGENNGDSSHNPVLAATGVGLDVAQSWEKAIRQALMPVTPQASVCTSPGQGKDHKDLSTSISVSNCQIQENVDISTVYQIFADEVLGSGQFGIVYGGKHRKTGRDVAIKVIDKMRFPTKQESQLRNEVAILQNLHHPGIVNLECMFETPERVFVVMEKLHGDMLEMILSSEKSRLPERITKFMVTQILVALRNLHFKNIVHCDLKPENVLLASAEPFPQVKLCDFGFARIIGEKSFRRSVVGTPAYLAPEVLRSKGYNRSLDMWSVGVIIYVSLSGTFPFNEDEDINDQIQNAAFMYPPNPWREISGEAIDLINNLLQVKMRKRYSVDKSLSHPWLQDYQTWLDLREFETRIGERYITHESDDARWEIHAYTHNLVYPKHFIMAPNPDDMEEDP
Text: (§1) Table S4. Profiling of two compounds at two concentrations against 320 wild-type protein kinases; singlicate measurement; Residual activities (% of control).

[2] = target: T2, 320 wild-type protein kinases (Homo sapiens, UniProt P52333); conditions: singlicate
T2 sequence (P52333 1-1124): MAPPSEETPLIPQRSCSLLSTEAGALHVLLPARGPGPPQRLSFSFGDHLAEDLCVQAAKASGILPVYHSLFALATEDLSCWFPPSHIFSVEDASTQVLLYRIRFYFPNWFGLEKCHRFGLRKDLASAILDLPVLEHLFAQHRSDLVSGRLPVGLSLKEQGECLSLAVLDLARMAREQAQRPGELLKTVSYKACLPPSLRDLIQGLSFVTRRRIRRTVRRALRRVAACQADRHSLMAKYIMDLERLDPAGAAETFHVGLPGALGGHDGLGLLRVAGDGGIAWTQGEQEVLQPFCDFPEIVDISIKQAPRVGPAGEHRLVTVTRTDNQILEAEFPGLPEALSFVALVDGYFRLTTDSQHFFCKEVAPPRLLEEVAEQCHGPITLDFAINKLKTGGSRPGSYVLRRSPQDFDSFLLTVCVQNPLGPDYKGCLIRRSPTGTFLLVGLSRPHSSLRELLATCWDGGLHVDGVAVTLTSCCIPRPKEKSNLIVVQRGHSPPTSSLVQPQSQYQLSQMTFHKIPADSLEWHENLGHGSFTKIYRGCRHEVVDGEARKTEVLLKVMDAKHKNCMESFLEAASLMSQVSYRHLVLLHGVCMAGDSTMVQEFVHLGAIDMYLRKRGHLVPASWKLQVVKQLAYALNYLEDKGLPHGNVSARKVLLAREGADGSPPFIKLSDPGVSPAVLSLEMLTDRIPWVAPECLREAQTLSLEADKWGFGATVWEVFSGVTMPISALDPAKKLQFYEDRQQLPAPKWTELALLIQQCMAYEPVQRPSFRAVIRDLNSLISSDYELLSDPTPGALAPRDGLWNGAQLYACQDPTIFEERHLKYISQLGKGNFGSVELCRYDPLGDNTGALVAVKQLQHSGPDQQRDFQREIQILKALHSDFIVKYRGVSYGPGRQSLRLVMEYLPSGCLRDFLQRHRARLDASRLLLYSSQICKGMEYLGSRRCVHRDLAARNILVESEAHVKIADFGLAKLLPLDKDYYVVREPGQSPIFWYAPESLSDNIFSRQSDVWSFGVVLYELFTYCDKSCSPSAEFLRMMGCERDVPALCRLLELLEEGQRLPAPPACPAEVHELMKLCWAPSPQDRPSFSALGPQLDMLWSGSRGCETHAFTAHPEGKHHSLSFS
Text: as §1

[3] = target: 320 wild-type protein kinases (Homo sapiens, UniProt Q15349); conditions: kinase RPS6KA2, singlicate
Text: as §1

[4] = target: 320 wild-type protein kinases (Homo sapiens, UniProt Q15375); conditions: singlicate
Text: as §1

[5] = target: 320 wild-type protein kinases (Homo sapiens, UniProt Q9Y243); conditions: singlicate
Text: as §1

[6] = target: 320 wild-type protein kinases (Homo sapiens, UniProt Q9Y6E0); conditions: singlicate
Text: as §1

320 wild-type protein kinases (Homo sapiens, UniProt Q15349), sequence (Q15349 whole entry): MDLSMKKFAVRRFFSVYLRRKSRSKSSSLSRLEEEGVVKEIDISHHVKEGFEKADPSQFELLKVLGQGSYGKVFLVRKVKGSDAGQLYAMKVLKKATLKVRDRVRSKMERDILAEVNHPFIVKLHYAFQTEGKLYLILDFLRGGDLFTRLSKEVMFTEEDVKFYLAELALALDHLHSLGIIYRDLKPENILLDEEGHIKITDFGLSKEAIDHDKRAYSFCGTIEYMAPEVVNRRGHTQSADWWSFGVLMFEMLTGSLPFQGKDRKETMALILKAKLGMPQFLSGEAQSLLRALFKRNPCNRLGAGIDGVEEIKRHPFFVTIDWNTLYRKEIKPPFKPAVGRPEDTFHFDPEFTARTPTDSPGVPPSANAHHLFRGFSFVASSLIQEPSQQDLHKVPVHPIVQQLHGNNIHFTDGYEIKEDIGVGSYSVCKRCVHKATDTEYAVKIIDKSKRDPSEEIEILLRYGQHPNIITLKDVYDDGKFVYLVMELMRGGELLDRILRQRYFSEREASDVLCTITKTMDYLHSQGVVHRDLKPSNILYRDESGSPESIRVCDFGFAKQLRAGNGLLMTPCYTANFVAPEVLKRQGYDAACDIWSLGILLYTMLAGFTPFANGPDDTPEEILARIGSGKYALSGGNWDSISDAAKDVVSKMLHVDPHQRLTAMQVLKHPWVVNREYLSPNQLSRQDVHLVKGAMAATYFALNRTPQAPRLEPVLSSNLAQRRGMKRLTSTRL
320 wild-type protein kinases (Homo sapiens, UniProt Q15375), sequence (Q15375 28-998): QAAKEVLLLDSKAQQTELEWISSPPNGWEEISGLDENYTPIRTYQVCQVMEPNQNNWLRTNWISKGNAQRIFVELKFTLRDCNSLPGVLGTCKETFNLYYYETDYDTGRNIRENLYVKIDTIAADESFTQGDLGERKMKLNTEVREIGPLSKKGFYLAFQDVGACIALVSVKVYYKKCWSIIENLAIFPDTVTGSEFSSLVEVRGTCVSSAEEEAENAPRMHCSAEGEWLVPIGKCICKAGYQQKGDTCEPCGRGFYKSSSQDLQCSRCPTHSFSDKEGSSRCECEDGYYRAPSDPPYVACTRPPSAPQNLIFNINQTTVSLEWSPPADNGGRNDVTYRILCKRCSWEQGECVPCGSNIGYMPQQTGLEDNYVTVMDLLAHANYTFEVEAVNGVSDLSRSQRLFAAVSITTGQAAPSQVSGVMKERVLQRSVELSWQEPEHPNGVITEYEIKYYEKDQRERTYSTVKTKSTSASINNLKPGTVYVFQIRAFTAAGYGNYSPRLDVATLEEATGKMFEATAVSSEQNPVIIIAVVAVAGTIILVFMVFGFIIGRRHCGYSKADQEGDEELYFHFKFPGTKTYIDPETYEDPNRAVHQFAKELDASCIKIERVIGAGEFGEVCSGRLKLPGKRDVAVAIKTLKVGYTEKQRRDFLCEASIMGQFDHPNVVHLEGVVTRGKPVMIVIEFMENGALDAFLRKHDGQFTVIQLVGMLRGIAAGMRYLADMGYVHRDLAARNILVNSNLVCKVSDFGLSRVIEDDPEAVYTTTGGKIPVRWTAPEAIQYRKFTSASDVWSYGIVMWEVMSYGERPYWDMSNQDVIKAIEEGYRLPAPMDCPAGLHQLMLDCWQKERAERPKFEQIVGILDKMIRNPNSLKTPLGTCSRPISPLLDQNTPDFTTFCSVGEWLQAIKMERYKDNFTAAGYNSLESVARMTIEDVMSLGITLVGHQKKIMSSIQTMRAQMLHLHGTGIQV
320 wild-type protein kinases (Homo sapiens, UniProt Q9Y6E0), sequence (Q9Y6E0 whole entry): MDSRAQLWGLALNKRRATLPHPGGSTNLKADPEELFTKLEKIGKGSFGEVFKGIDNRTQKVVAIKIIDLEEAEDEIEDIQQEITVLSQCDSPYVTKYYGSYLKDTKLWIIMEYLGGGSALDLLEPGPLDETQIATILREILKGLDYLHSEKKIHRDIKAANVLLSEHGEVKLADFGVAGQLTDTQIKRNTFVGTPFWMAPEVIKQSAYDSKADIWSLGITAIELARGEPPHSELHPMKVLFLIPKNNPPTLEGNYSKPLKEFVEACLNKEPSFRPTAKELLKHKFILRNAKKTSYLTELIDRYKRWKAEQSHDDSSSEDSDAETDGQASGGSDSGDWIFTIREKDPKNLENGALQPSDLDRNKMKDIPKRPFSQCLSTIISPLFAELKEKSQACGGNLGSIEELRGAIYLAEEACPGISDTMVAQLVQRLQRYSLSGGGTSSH
320 wild-type protein kinases (Homo sapiens, UniProt Q9Y243), sequence (Q9Y243 whole entry): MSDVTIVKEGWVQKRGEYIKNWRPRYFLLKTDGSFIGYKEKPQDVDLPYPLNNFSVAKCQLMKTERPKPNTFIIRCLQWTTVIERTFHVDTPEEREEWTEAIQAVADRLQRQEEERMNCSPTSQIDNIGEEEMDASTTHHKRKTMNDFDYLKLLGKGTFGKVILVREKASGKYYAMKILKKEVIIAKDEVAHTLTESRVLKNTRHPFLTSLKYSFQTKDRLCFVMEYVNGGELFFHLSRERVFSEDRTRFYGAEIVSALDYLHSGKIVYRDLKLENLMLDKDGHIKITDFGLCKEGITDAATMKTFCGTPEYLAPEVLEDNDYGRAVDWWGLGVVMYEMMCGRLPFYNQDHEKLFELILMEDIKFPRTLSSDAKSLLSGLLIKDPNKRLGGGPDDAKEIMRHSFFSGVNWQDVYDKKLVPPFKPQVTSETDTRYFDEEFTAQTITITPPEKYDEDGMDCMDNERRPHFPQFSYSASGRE

Compound	Residual activity ([1]; 1.0E-06 M)	Residual activity ([1]; 1.0E-07 M)	Residual activity ([2]; JAK3, 1.0E-06 M)	Residual activity ([2]; JAK3, 1.0E-07 M)	Residual activity, RPS6KA2 ([3]; assay conc. 1.0E-06 M)	Residual activity, RPS6KA2 ([3]; assay conc. 1.0E-07 M)	Residual activity ([4]; EPHA7, 1.0E-06 M)	Residual activity ([4]; EPHA7, 1.0E-07 M)	Residual activity ([5]; AKT3 aa106-479, 1.0E-06 M)	Residual activity ([5]; AKT3 aa106-479, 1.0E-07 M)	Residual activity ([6]; MST3, 1.0E-06 M)	Residual activity ([6]; MST3, 1.0E-07 M)
C#Cc1cc(Nc2ncnc3cc(I)ccc23)ccc1Cl [Compound 41]	86 % of control	87 % of control	78 % of control	108 % of control	94 % of control	97 % of control	94 % of control	85 % of control	97 % of control	94 % of control	104 % of control	116 % of control
C#Cc1cc(Nc2ncnc3cc(OC)c(OC)cc23)ccc1Cl [Compound 45]	84 % of control	99 % of control	85 % of control	112 % of control	86 % of control	100 % of control	58 % of control	84 % of control	101 % of control	96 % of control	94 % of control	93 % of control
